# Measured values as given in US12390505B2, “Composition for preventing or treating obesity or diabetes, comprising acanthopanax senticosus extract and garcinia cambogia extract or compound isolated therefrom” (KOREA RESEARCH INSTITUTE OF BIOSCIENCE AND BIOTECHNOLOGY, priority 2020, dated 2025).
# Read-outs that look alike come from different tables or passages of the source.
# How the values were obtained:
# [1] = test system: L6 myotube cells; assay: Isobologram analysis of glucose absorption capacity, chiisanogenin and Ca-HCA; assay type: cell-based; details: Rattus norvegicus; differentiated L6 myotube cells, single compound
# Method: (§1) To differentiate rat myoblast L6 cells into myotubes, it was suspended at a concentration of 1×10^4 cells/ml in MEM medium (Welgene) supplemented with 10% of Fetal Bovine Serum and 1% of antibiotic antimycotic, and then 500 μl each was inoculated into a 24-well plate and cultured to the full for 2 days. […] The differentiated myotube cells were replaced with serum-free medium before the experiment and left for 6 hours. Myotube cells were pretreated with 100 nM porcine-derived insulin and 20 μM cytochalacin B for 15 minutes, and other samples were pretreated for 30 minutes. […] After the reaction, the cells were washed twice with Krebs-Ringer buffer (20 mM Tris-HCl, 2 mM EDTA, and 0.5 mM EGTA, pH 7.4), and the cells were lysed with 0.5N NaOH and mixed with a scintillation cocktail. The intracellular radiation dose of 2-DG was measured using a liquid scintillation counter (Tri-Carb 2900TR liquid scintillation analyzer, Perkin Elmer).
# [2] = test system: 3T3-L1 cells; assay: Triglyceride production, Adipogenesis Colorimetric Assay; assay type: cell-based, mouse
# Method: 3T3-L1 cells, which are preadipocytes of mice, are suspended at a concentration of 2×10^4 cells/ml using Dulbecco's Modified EaDCRT media (DMEM, Gibco) containing 10% of Bovine Calf Serum as a growth media (GM), and then inoculated into 24-well plates at 1 ml each, and then adipocytes were cultured for 3 days to become confluent. In order to induce adipocyte differentiation, DMEM media containing 10% FBS was replaced with differentiation media (DM) supplemented with insulin, dexamethasone and 3-isobutyl-1-methylanthin (IBMX) and cultured for 2 days. After 2 days, DMEM media containing 10% FBS containing insulin was added to the existing medium. […] After differentiation was induced under the same conditions as above, triglyceride (TG) produced was measured using an Adipogenesis Colorimetric Assay (Biovision) kit. According to the protocol provided in the kit, after washing the cells once with PBS, 100 μl of Lipid Extract solution was added to scrape the cells, and the cells were placed at 90° C. for 30 minutes. Thereafter, the supernatant, which had turned cloudy, was left at room temperature until it became transparent, and then 50 μl of the supernatant was obtained and transferred to a 96-well plate. After adding 2 μl of lipase and reacting for 10 minutes, 50 μl of the reaction mixture containing the probe and enzyme mix was added and reacted, and the degree of color development was measured at 570 nm with a microplate meter. The concentration of triglyceride produced in the cells was determined using a standard curve for each concentration according to the triglyceride sample included in the kit.
# [3] = test system: L6 myotube cells; assay: Glucose uptake (2-deoxy-D-[14C]-glucose) in muscle cells; assay type: cell-based, rat
# Method: as §1
# [4] = test system: 3T3-L1 cells; details: for Cell Viability: mouse
# Method: DMEM medium (Gibco) supplemented with 10% Bovine Calf Serum and 1% Penicillin-streptomycin was used as a growth media (GM) to culture 3T3-L1 cells, which are mouse preadipocytes. The suspension was suspended at a concentration of 2×10^3 cells/ml, and 100 μl each was inoculated into a 96-well plate, and the cells were cultured to full capacity for 3 days. In order to induce fat differentiation, DMEM medium containing 10% FBS was replaced with a differentiation media (DM) supplemented with insulin, dexamethasone and 3-isobutyl-1-methylxanthine (IBMX), and cultured for 2 days. After 2 days, DMEM medium containing 10% FBS containing insulin was added to the existing medium. […] As described in the CCK-8 (Dojindo) kit for counting cells, 10 μl of CCK-8 solution was mixed with 90 μl of medium and added at 100 μl per well. After reacting for at least 30 minutes to 1 hour, absorbance was measured at 450 nm.
# [5] = Example 12 HFD mice: oral glucose tolerance test; assay type: in vivo, mouse; details: oral once daily 10 weeks, 50 mg/kg
# Method: After adapting 8-week-old male C57b1/6 J mice to the basic diet (AIN-76A diet) for 2 weeks, and consuming Diet Induced Obesity Diet Formulas (D12451) 60 kcal % HFD diet for 2 weeks from 10 weeks of age, and then the test drug was administered when the average body weight reached 28 g or more. The animal breeding room environment of the mouse was maintained in a constant temperature (25±2° C.), constant humidity (50±5%) and a 12-hour photoperiod (light on 07:00˜19:00) in which the light and shade were controlled in an SPF environment. […] The test drug was dispersed in 0.5% Carboxymethyl cellulose (CMC) and administered in a volume of 0.2 ml, and the drug was administered orally by force into the stomach using a metal Zonde for oral administration.
# […] Blood to be used for blood glucose measurement was collected from the tail vein of a mouse, and blood glucose was measured using a serum analyzer (Accutrend plus GCTL Cobas Roche, Germany).
# Results obtained from various experiments are recorded as mean±standard error of mean (SEM), and significance verification is determined using the student's T-test analysis method. The data were analyzed using one-way ANOVA to determine a statistically significant variance between each group for each final point measured, and statistical significance between each group was determined using the nonparametric Mann-Whitney test and Dunnett's multiple comparison test (IBM SPSS statistics version 19.0 statistic software, Inc, IBM, USA).
# [6] = test system: 3T3-L1 cells; assay: Fat accumulation, Oil Red O staining; assay type: cell-based, mouse
# Method: 3T3-L1 cells, which are preadipocytes of mice, are suspended at a concentration of 2×10^4 cells/ml using Dulbecco's Modified EaDCRT media (DMEM, Gibco) containing 10% of Bovine Calf Serum as a growth media (GM), and then inoculated into 24-well plates at 1 ml each, and then adipocytes were cultured for 3 days to become confluent. […] In order to measure lipid accumulation after inducing the adipocyte differentiation, it was measured using Oil red 0 staining analysis (Sigma-aldrich). To fix the cells, 1% formaldehyde (based on distilled water) was added and reacted at 4° C. for 1 hour, followed by washing with distilled water, and then stained with 500 μl of filtered Oil Red 0 solution at room temperature for 1 hour. Then, after washing with distilled water, 300 μl of 100% isopropyl alcohol was added to extract intracellular oil red 0, and the degree of color development was measured at 492 nm using a microplate measuring instrument.
# [7] = Example 12 HFD mice: serum test; assay type: in vivo, mouse; details: serum of HFD mice, oral once daily for 10 weeks; chiisanogenin 50 mg/kg; Garcinia cambogia extract 200 mg/kg; combination 50 + 150 mg/kg; Met 50 mg/kg
# Method: The test drug was dispersed in 0.5% Carboxymethyl cellulose (CMC) and administered in a volume of 0.2 ml, and the drug was administered orally by force into the stomach using a metal Zonde for oral administration. Blood was collected by cardiac puncture to conduct a blood biochemical test after the end of the final experiment, and then plasma was separated by centrifugation at 3,000 rpm and 4° C. for 15 minutes within 30 minutes after blood collection, and then stored at −74° C. for blood chemistry and ELISA analysis. The contents of total cholesterol, high-density lipoprotein (HDL), low-density lipoprotein (LDL), triglyceride, FFA, glucose, and LDH, which are indicators of lipid content, were measured using an automated biochemical analyzer (Hitachi-720, Hitachi Medical, Japan). IGF-1 and Creatine were diluted in coating buffer, coated on microwells, and left overnight at 4° C. […] 100 μl of the TMB substrate was dispensed, left in the dark for 30 minutes, treated with 50 μl of the stop solution, and absorbance was measured at a wavelength of 450 nm using an ELISA reader. Results obtained from various experiments are recorded as mean±standard error of mean (SEM), and significance verification is determined using the student's T-test analysis method. […]
# [8] = test system: PPAR-gamma mRNA; assay: Example 12 HFD mice: adipose tissue PPAR-gamma mRNA analysis; assay type: in vivo, mouse; details: adipose tissue of HFD mice, oral once daily for 10 weeks, chiisanogenin 50 mg/kg, Garcinia cambogia extract 200 mg/kg, combination 50 + 150 mg/kg, Met 50 mg/kg
# Method: The test drug was dispersed in 0.5% Carboxymethyl cellulose (CMC) and administered in a volume of 0.2 ml, and the drug was administered orally by force into the stomach using a metal Zonde for oral administration. RNA was extracted from tissues using RNAsolB (Tel-Test) solution, and cDNA and real-time PCR analysis were performed using One-step SYBR Green PCR kit (AB science). From the prepared cDNA, a FAM probe of [NT] ID NO: 16) sequence was used to amplify PPAR-gamma mRNA, and a VIC probe of [NT] ID NO: 15) sequence was used to amplify GAPDH mRNA as an intra control. Real time quantitative PCR was performed using the Applied Biosystems 7500 Real-Time PCR system (Applied Biosystems, USA). Results obtained from various experiments are recorded as mean±standard error of mean (SEM), and significance verification is determined using the student's T-test analysis method. The data were analyzed using one-way ANOVA to determine a statistically significant variance between each group for each final point measured, and statistical significance between each group was determined using the nonparametric Mann-Whitney test and Dunnett's multiple comparison test (IBM SPSS statistics version 19.0 statistic software, Inc, IBM, USA).
# [9] = Mus musculus, 3T3-L1, read-out: Inhibition Rate (TG production)
# [10] = Table 6, mixture ratio 0:10, 25 μg/mL
smiles,measurement,setting,value
"O=C(O)CC(O)(C(=O)O)C(O)C(=O)O (centres unmarked) [Ca-HCA, hydroxy citric acid]",EC50,[1],27.6 µM
same,inhibition at 25 µg/mL,"[2]; Mus musculus, 3T3-L1, Table 9, 25 μg/mL, read-out: Inhibition Rate (TG production)",6.62 ± 0.98%
same,inhibition at 50 µg/mL,"[2]; Mus musculus, 3T3-L1, Table 9, 50 μg/mL, read-out: Inhibition Rate (TG production)",11.4 ± 0.88%
same,TG Production Rate (% relative to positive control),"[2]; Table 9, 25 μg/mL",94.51 ± 0.81%
same,TG Production Rate (% relative to positive control),"[2]; Table 9, 50 μg/mL",90.54 ± 0.73%
same,"Glucose absorption rate (%, relative to 100 nM insulin treatment as 100%)",[3]; 5 μg/mL,5%
same,"Glucose absorption rate (%, relative to 100 nM insulin treatment as 100%)",[3]; 30 μg/mL,50%
same,Cytotoxicity (conclusion from Tables 3 to 5),[4],not cytotoxic
same,Cell Viability,[4]; 12.5 μg/mL,113.20 ± 14.37%
same,Cell Viability,[4]; 25 μg/mL,115.37 ± 8.86%
same,Cell Viability,[4]; 50 μg/mL,86.24 ± 8.74%
same,Cell Viability,[4]; 100 μg/mL,88.65 ± 11.58%
"C=C(C)[C@@H]1CC[C@]2(C(=O)O)CC[C@]3(C)[C@H](C[C@H]4OC(=O)C[C@@H](O)[C@]5(C)[C@@H]4[C@@]3(C)CC[C@H]5C(=C)C)[C@@H]12 [Chiisanogenin, chiisanogenin]",EC50,[1],23.3 µM
same,inhibition at 10 µg/mL,[2]; [9],11.4 ± 5.34%
same,inhibition at 25 µg/mL,[2]; [9],6.47 ± 0.73%
same,inhibition at 50 µg/mL,[2]; [9],22.8 ± 0.25%
same,TG Production Rate (% relative to positive control),"[2]; Table 8, 10 μg/mL",90.84 ± 4.21%
same,TG Production Rate (% relative to positive control),"[2]; Table 9, 25 μg/mL",94.63 ± 0.61%
same,TG Production Rate (% relative to positive control),"[2]; Table 9, 50 μg/mL",81.07 ± 0.20%
same,Inhibition Rate (OGTT),[5],38%
same,"OGTT (30 min-0 min, mg/dL)",[5]; glucose 1 g/kg,127.4 ± 13.03 mg/dL
same,"Glucose absorption rate (%, relative to 100 nM insulin treatment as 100%)",[3]; 5 μg/mL,1%
same,"Glucose absorption rate (%, relative to 100 nM insulin treatment as 100%)",[3]; 15 μg/mL,25%
same,inhibition at 10 µg/mL,"[6]; Mus musculus, 3T3-L1, Table 7, 10 μg/mL, read-out: Inhibition Rate (fat accumulation)",11.3 ± 1.47%
same,Fat Accumulation Rate (% relative to positive control),[6]; [10],87.21 ± 4.82 %
same,Inhibition Rate (fat accumulation),[6]; [10],22.59 ± 7.34%
same,Fat Accumulation Rate (% relative to positive control),"[6]; Table 7, 10 μg/mL",95.13 ± 5.90%
same,"Creatin (mg/dL), mean ± standard error",[7],0.635 ± 0.007 mg/dL
same,PPAR-γ mRNA Inhibition Rate (%),[8],49%
same,"PPAR-γ mRNA, mean ± standard error",[8]; real-time PCR vs GAPDH,2.134 ± 0.39
same,Cytotoxicity (conclusion from Tables 3 to 5),[4],not cytotoxic
same,Cell Viability,[4]; 10 μg/mL,127.27 ± 18.60%
same,Cell Viability,[4]; 12.5 μg/mL,106.41 ± 3.40%
same,Cell Viability,[4]; 50 μg/mL,117.77 ± 9.59%
same,Cell Viability,[4]; 100 μg/mL,104.31 ± 9.72%
